Source: patent publication US11672802B2, “Induction of immune tolerance by using methotrexate” (Genzyme Corporation, priority 2011, dated 2023)

What was measured:
anti-alemtuzumab IgG = experiment: Anti-alemtuzumab IgG ELISA titers in huCD52 Tg mice
Description: Alemtuzumab-related studies employed human CD52 (huCD52) transgenic (Tg) mice between 6-12 weeks of age that were obtained from Charles River Laboratories/Genzyme Corp. Mice were housed and maintained in accordance with the Guide for Care and Use of Laboratory Animals and under American Association for Accreditation of Laboratory Animals Care I accreditation and all animal protocols used in these studies were approved by the Institutional Animals Care and Use Committee.
Monoclonal antibody alemtuzumab was administered intravenously as either a single injection of 0.5 mg/kg or in either a three or five day cycle of 0.5 mg/kg/day.
Methotrexate (Calbiochem catalog #454125) was administered at 0.5, 1.0, 2.0 or 5 mg/kg by intraperitoneal injection for 1-3 cycles, where each cycle equals either three, six or seven consecutive days of injection depending upon the experiment.
Mice were bled 4-6 days following alemtuzumab treatment and specific anti-alemtuzumab IgG was measured by ELISA. Briefly, 96-well plates (Corning Inc., Corning, N.Y., USA) were coated overnight with 3 μg/ml of alemtuzumab in PBS (pH 7.2). Following blocking with 0.1% BSA in PBS, serial dilutions of serum were added in duplicate to alemtuzumab-coated plates and incubated at 37° C. for 1 h. The plates were washed, and horseradish peroxidase-conjugated goat anti-mouse IgG secondary antibody (Southern Biotechnology Associates, Birmingham, Ala., USA) was added and allowed to incubate for 1 h at 37° C. Following a final wash, TMB substrate (BioFx, Owings Mills, Md., USA) was added and allowed to develop for 15 min at room temperature. The reaction was stopped by the addition of 1 N HCl and absorbance values were read at 450/650 nm on an ELISA plate reader (Molecular Devices, Sunnyvale, Calif., USA). End-point titers were defined as the antilog of the logarithmically transformed sample dilution interpolated at an absorbance value of 0.2 using Excel software (Microsoft, Redmond, Wash., USA).

[1] = system: circulating and splenic T cells and B cells; experiment: Flow cytometry of alemtuzumab-mediated lymphocyte depletion in blood and spleen; assay type: in vivo, huCD52 Tg mice
Description: For splenocyte and lymph node cell preparations single-cell suspensions were generated from harvested mouse spleens or inguinal and mesenteric lymph nodes by homogenization between frosted glass slides into PBS containing 2% FCS. For splenocyte preparations, red blood cells were lysed by 1-2 minute incubation with a red blood cell lysis solution (BD Biosciences, San Diego, Calif.). Blood was isolated by retro-orbital bleeding and cell preparations were performed by lysing red blood cells with red blood cell lysing solution (BD Biosciences) for 20-30 minutes. For all tissue preparations, live cells were enumerated using the ViCell automated counter (Beckman Coulter, Fullerton, Calif.). Following isolation, all cell preparations were washed with PBS/2% FCS prior to use in the assays described below.
For evaluation of cell populations within different tissues, single cell suspensions of the tissues were incubated with fluorochrome-conjugated antibodies that included anti-mouse CD4, CD8, CD25, CD44, CD62L (all antibodies from BD Biosciences or eBioscience, San Diego, Calif.). Intracellular Foxp3 expression analysis was performed according to the anti-Foxp3 manufacturer's protocol (eBiosciences, San Diego, Calif.). Following incubation with the antibodies, cells were washed and analyzed by flow cytometry (FACSCanto, BD Biosciences and FCS Express software, De Novo Software, Los Angeles, Calif.).

[2] = system: anti-alemtuzumab antibodies; conditions: rheumatoid arthritis patients, single dose escalation study; cited from earlier work
anti-rhGAA IgG = experiment: Anti-rhGAA IgG ELISA titers in mice treated with rhGAA; assay type: in vivo
Description: Recombinant human alglucosidase alfa (rhGAA, marketed by Genzyme Corp. as Myozyme®) was used as a formulated drug product. Mice were treated weekly with 20 mg/kg of rhGAA by bolus tail vein injection unless stated differently. All mice were treated prophylactically with 5 to 30 mg/kg diphenhydramine (Baxter Healthcare Corporation, Deerfield, Ill.) intraperitoneally prior to rhGAA administration. Control animals were treated intravenously with either sterile 0.9% saline or rhGAA-formulation buffer. Methotrexate treatment
Mice were bled 4-6 days following rhGAA treatment and specific IgG was measured by ELISA. […] Endpoint titers were defined as the reciprocal of the sample dilution resulting in an absorbance value of 0.2 using Softmax software (Molecular Devices, Sunnyvale, Calif.).
C57Bl/6 mice were treated with one 20 mg/kg intravenous dose of rhGAA (Genzyme Corporation), 3 consecutive intraperitoneal doses of 5 mg/kg methotrexate (APP Pharmaceuticals, LLC), and either 1D11 or 13C4 at 5 mg/kg (Genzyme Corporation) for 3 doses every other day. Methotrexate, 1D11, and 13C4 treatment commenced with rhGAA injections. Spleens were collected 7 days after treatment initiation and were processed as described above for B cells, culture and flow analysis. Additionally, rhGAA titer data was obtained by treating animals as described above, with rhGAA dosed weekly over 12 weeks, methotrexate dosed for either 1 or 3 cycles, and 1D11 or 13C4 dosed 3 times a week every other day for 12 weeks. Serum samples were collected every 2 weeks for ELISA analysis.

[3] = system: allogeneic heart transplant; experiment: Murine allogeneic heart transplant model, graft survival; assay type: in vivo, mice (C57BL/6 donor, Balb/c recipient); conditions: mouse, in vivo
Description: Polyclonal antibody mATG was administered as an intraperitoneal injection of 5 mg/kg every four weeks or as two 20 mg/kg doses given four days apart when in the transplant setting with the first dose given on the day of transplant (day 0).
C57BL/6 and BALB/c mice were obtained from Charles River (Kingston, N.Y. or Raleigh, N.C.) and used in these experiments between 8 and 13 weeks of age. The donor allogenic C57BL/6 mice were first anesthetized with an intraperitoneal injection of Ketamine (Fort Dodge Animal Health/Pfizer, Fort Dodge, Iowa) and Xylazine (Lloyd, Shenandoah, Iowa) and a median sternotomy was performed. […] The ascending aorta and pulmonary artery were then transected, the graft removed from the donor and the heart was stored in ice-cold saline until engraftment. A recipient mouse (Balb/c) was similarly anesthetized and prepped as described above for donor mice, except that the abdominal cavity was opened. […] After hemostasis was confirmed, the abdominal muscle was closed with a running 5-O Vicryl suture (Ethicon, Johnson & Johnson, Somerville, N.J.), and the skin closed with running 5-0 Ethilon suture (Ethicon). Standard post-op pain assessment and management was performed. Grafts were assessed by palpation 5-7 times per week for the first 30 day, and then 3-4 times per week until the end of the study.

[4] = alemtuzumab 0.5 mg/kg iv five consecutive days
[5] = peripheral blood, four weeks after five consecutive days of 0.5 mg/kg iv

## alemtuzumab: lymphocyte-depleting humanized anti-CD52 monoclonal antibody
anti-alemtuzumab IgG; alemtuzumab 0.5 mg/kg iv
  ADA responses elicited: significant ADA responses
anti-alemtuzumab IgG; alemtuzumab 0.5 mg/kg monthly
  ADA response following the fifth dose: no longer generated anti-alemtuzumab antibodies
anti-alemtuzumab IgG; huCD52 Tg CD1 mice
  ADA titers against alemtuzumab: > 100,000
[1]; 24 hours after a single dose of alemtuzumab
  percent depletion of circulating B cells: 92%
[1]; [4]
  splenic follicular, B1 and regulatory B cells: depleted at one and/or two weeks
  splenic marginal zone, transitional 1 and transitional 2 B cells: not depleted at any of the time-points
  splenic transitional 3 B cells: only depleted after one week of treatment
[1]; alemtuzumab alone, or with methotrexate 5 mg/kg daily for first three days
  depletion of circulating T cells by fifth monthly dose of alemtuzumab: no longer deplete T cells
[1]; [5]
  recovery of CD19+ B cell numbers: returned to control levels
  recovery of total CD3+ T cells, CD4+ T helper cells and CD8+ T cytotoxic cells: did not recover to pre-treatment levels
[1]; single dose of alemtuzumab
  earliest depletion observed in peripheral blood, post-dosing: three hours
[1]; three days after a single dose of alemtuzumab
  percent depletion of circulating B cells: 36%
[1]; three days after a single dose of alemtuzumab, no methotrexate
  splenic cell subsets: significantly depleted
[2]
  patients in whom anti-alemtuzumab antibodies developed: 63%

## rhGAA: recombinant human acid alpha-glucosidase, marketed by Genzyme as Myozyme
anti-rhGAA IgG; T cell deficient Nu/Nu mice
  ADA to rhGAA: little to no ADA
anti-rhGAA IgG; week 6, rhGAA alone, rhGAA + methotrexate, or with 5 mg/kg 1D11 or 13C4
  animals exhibiting high anti-rhGAA titers: two

## COc1c(C)c2c(c(O)c1C/C=C(\C)CCC(=O)OCCN1CCOCC1)C(=O)OC2 [mycophenolate mofetil]
[3]
  graft survival when co-administered with mATG: failed to significantly prolong graft survival

## O=P1(N(CCCl)CCCl)NCCCO1 (stereo not drawn) [cyclophosphamide]
[3]
  graft survival when co-administered with mATG: failed to significantly prolong graft survival
